Assay results as given in US10941157B2, “Pesticidal compositions and uses thereof” (Gilead Apollo, LLC, priority 2015, dated 2021).
In brackets after ≈: the same amount, converted by molar mass.

How the values were obtained:
Botrtyis cinerea (Bc) = assay: In vitro pathogen growth inhibition assay, Bc; assay type: cell-based; settings: 48 h, ≥90% growth inhibition; 48 hours; vs 2% DMSO control; read-out: Compound Concentration (ppm) sufficient for ≥90% inhibition of Bc
In short: (§1)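 Value reported is the compound concentration reaching ≥90% growth inhibition, from OD readings at 24 and 48 h after blank subtraction, confirmed visually. Inoculum was spores diluted in 17% V8 medium, except Rs, using 1.5 mm mycelial plugs in ¼ PDB; actual compound concentration corrected via OD600.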

[1] = system: Collectotrichum graminicola (Cg); assay: In vitro pathogen growth inhibition assay, Cg; assay type: cell-based; settings: 48 h, ≥90% growth inhibition; 48 hours; vs 2% DMSO control; read-out: Compound Concentration (ppm) sufficient for ≥90% inhibition of Cg
In short: as §1

Diplodia maydis (Dm) = assay: In vitro pathogen growth inhibition assay, Dm; assay type: cell-based; settings: Stenocarpella maydis, 48 h, ≥90% growth inhibition; 48 hours; vs 2% DMSO control; read-out: Compound Concentration (ppm) sufficient for ≥90% inhibition of Dm
In short: (§2)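 Spores in 17% V8 liquid medium, or 1.5 mm Rs mycelial plugs in ¼ PDB, incubated with compound; final concentration checked by OD600 for precipitation. OD readings at 24 and 48 h, blank-subtracted, plus visual ratings; value is concentration giving ≥90% growth inhibition.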

[2] = system: Fusarium moniliforme (Fm); assay: In vitro pathogen growth inhibition assay, Fm; assay type: cell-based; settings: Fusarium verticillioides; ≥90% growth inhibition; 48 hours; vs 2% DMSO control; read-out: Compound Concentration (ppm) sufficient for ≥90% inhibition of Fm
In short: as §1

[3] = system: Fusarium virguliforme (Fv); assay: In vitro pathogen growth inhibition assay, Fv; assay type: cell-based; settings: ≥90% growth inhibition, 48 hours, vs 2% DMSO control, read-out: Compound Concentration (ppm) sufficient for ≥90% inhibition of Fv
In short: as §2

[4] = system: Phytophthora capsici (Pc); assay: In vitro pathogen growth inhibition assay, Pc; assay type: cell-based; settings: 48 h, ≥90% growth inhibition, 48 hours, vs 2% DMSO control, read-out: Compound Concentration (ppm) sufficient for ≥90% inhibition of Pc
In short: as §2

Rhizoctonia solani (Rs) = assay: In vitro pathogen growth inhibition assay, Rs (mycelial plugs); assay type: cell-based; settings: Rhizoctonia solani, 48 h, ≥90% growth inhibition; mycelial plugs; 48 hours; vs 2% DMSO control; read-out: Compound Concentration (ppm) sufficient for ≥90% inhibition of Rs
In short: as §2

Septoria tritici (St) = assay: In vitro pathogen growth inhibition assay, St; assay type: cell-based; settings: Zymoseptoria tritici, 48 h, ≥90% growth inhibition; 48 hours; vs 2% DMSO control; read-out: Compound Concentration (ppm) sufficient for ≥90% inhibition of St
In short: as §1

[5] = system: Blumeria graminis f. sp. hordei; assay: Foliar protection test for barley powdery mildew control; assay type: in vivo; settings: foliar spray on Hordeum vulgare cv. Perry, inoculated 24 hours after treatment, evaluated 7 days later
In short: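 Protective foliar test: compound atomized onto both leaf surfaces of 6-day-old Hordeum vulgare cv. Perry, followed after 24 h by spore-cloud inoculation from colonized untreated plants. Disease rated on leaves 7 days on, plants held at 20 to 22° C and 70% RH.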

Sphaerotheca fuliginea = assay: Foliar protection for cucumber powdery mildew control; assay type: in vivo; settings: foliar spray on Cucumis sativus cv. Straight Eight, inoculated 24 hours after treatment, evaluated 7 days later
In short: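 Protective foliar spray on 10-day-old Straight Eight cucumbers, with S. fuliginea spores dusted from infected stock plants 24 h after treatment. Disease developed at 23–27 °C, 60% RH and a 16 h photoperiod. Leaves were rated for mildew growth after 7 days; test rates 10 ppm or below.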

[6] = system: Mycosphaerella graminicola (synthetic Septoria tritici); assay: Foliar protection test for wheat septoria leaf blotch control; assay type: in vivo; settings: foliar spray on Triticum aestivum cv. WinterHawk, inoculated 1 hour after treatment, evaluated 16 days later
Fusarium graminearum = assay type: in vivo; settings: spray on flowering Triticum aestivum cv. Samson, inoculated 24 hours after treatment, evaluated 14 days later
Puccinia triticina = assay: Foliar protection test for wheat leaf rust control; assay type: in vivo; settings: foliar application to wheat (Triticum aestivum cv. Winterhawk), evaluated 10 days later
Phakopsora pachyrhizi = assay: Foliar protection test for Asian soybean rust control; assay type: in vivo; settings: foliar application to soybean (Glycine max AG4832), percent disease area evaluated 14 days later

SMILES | IC90 (Botrtyis cinerea (Bc)) [µg/mL] | IC90 [1] [µg/mL] | IC90 (Diplodia maydis (Dm)) [µg/mL] | IC90 [2] [µg/mL] | IC90 [3] [µg/mL] | IC90 [4] [µg/mL] | IC90 (Rhizoctonia solani (Rs)) [µg/mL] | IC90 (Septoria tritici (St)) [µg/mL] | Barley Powdery Mildew Control at a compound concentration of 10 ppm or lower [5] | Cucumber Powdery Mildew Control at a compound concentration of 10 ppm or lower (Sphaerotheca fuliginea) | Septoria Leaf Blotch Control at a compound concentration of 25 ppm or lower [6] | Wheat Fusarium Head Blight Control at a compound concentration of 25 ppm or lower (Fusarium graminearum) | Wheat Leaf Rust Control at a compound concentration of 10 ppm or lower (Puccinia triticina) | Asian Soybean Rust Control at a compound concentration of 25 ppm or lower (Phakopsora pachyrhizi)
CCOC(=O)c1sc2c(c1C)c(=O)n(C(C)(C)C(=O)NC(C)C)c(=O)n2C[C@H](OCC#N)c1cc(F)ccc1OC [Compound I-251, (R)-ethyl-1-(2-(cyanomethoxy)-2-(5-fluoro-2-methoxyphenyl)ethyl)-3-(1-(isopropylamino)-2-methyl-1-oxopropan-2-yl)-5-methyl-2,4-dioxo-1,2,3,4-tetrahydrothieno[2,3-d]pyrimidine-6-carboxylate] | 0.4 (≈ 0.68 µM) | 2 (≈ 3.4 µM) | 2 (≈ 3.4 µM) | 0.08 (≈ 0.136 µM) | 0.4 (≈ 0.68 µM) | > 50 | 0.4 (≈ 0.68 µM) | > 10 | AA (≥85% control of barley powdery mildew) | AA (≥85% control of cucumber powdery mildew) | C (from 25 to 49% control of wheat septoria leaf blotch) | C (from 25 to 49% control of wheat fusarium head blight) | D (<25% control of wheat leaf rust) | C (from 25 to 49% control of Asian soybean rust)
CCOC(=O)c1sc2c(c1C)c(=O)n(C(C)(C)C(=O)NC(C)C)c(=O)n2C[C@H](OC[C@@H](C)C#N)c1cc(F)ccc1OC [Compound I-258, (R)-ethyl-1-(2-((S)-2-cyanopropoxy)-2-(5-fluoro-2-methoxyphenyl)ethyl)-3-(1-(isopropylamino)-2-methyl-1-oxopropan-2-yl)-5-methyl-2,4-dioxo-1,2,3,4-tetrahydrothieno[2,3-d]pyrimidine-6-carboxylate] | 0.4 (≈ 0.649 µM) | 0.08 (≈ 0.13 µM) | 0.4 (≈ 0.649 µM) | 0.08 (≈ 0.13 µM) | 0.4 (≈ 0.649 µM) | ≥ 10 | 0.08 (≈ 0.13 µM) | ≥ 2 | A (from 70% to 84% control of barley powdery mildew) | AA (≥85% control of cucumber powdery mildew) | B (from 50 to 69% control of wheat septoria leaf blotch) | C (from 25 to 49% control of wheat fusarium head blight) | A (from 70% to 84% control of wheat leaf rust) | C (from 25 to 49% control of Asian soybean rust)
CCOC(=O)c1sc2c(c1C)c(=O)n(C(C)(C)C(=O)NC(C)C)c(=O)n2C[C@H](OC[C@H](C)C#N)c1cc(F)ccc1OC [Compound I-259, (R)-ethyl-1-(2-((R)-2-cyanopropoxy)-2-(5-fluoro-2-methoxyphenyl)ethyl)-3-(1-(isopropylamino)-2-methyl-1-oxopropan-2-yl)-5-methyl-2,4-dioxo-1,2,3,4-tetrahydrothieno[2,3-d]pyrimidine-6-carboxylate] | 0.4 (≈ 0.649 µM) | 0.08 (≈ 0.13 µM) | 0.4 (≈ 0.649 µM) | 0.08 (≈ 0.13 µM) | 0.4 (≈ 0.649 µM) | > 50 | 0.08 (≈ 0.13 µM) | > 10 | A (from 70% to 84% control of barley powdery mildew) | AA (≥85% control of cucumber powdery mildew) | C (from 25 to 49% control of wheat septoria leaf blotch) | B (from 50 to 69% control of wheat fusarium head blight) | C (from 25 to 49% control of wheat leaf rust) | B (from 50 to 69% control of Asian soybean rust)
COc1ccc(F)cc1[C@H](Cn1c(=O)n(C(C)(C)C(=O)NC(C)C)c(=O)c2c(C)c(-n3cccn3)sc21)OC[C@@H](C)C#N [Compound I-262, 2-(1-((R)-2-((S)-2-cyanopropoxy)-2-(5-fluoro-2-methoxyphenyl)ethyl)-5-methyl-2,4-dioxo-6-(1H-pyrazol-1-yl)-1,4-dihydrothieno[2,3-d]pyrimidin-3 (2H)-yl)-N-isopropyl-2-methylpropanamide] | 0.4 (≈ 0.655 µM) | 0.08 (≈ 0.131 µM) | 2 (≈ 3.27 µM) | ≥ 0.08 | 0.4 (≈ 0.655 µM) | ≥ 10 | 0.08 (≈ 0.131 µM) | ≥ 2 | A (from 70% to 84% control of barley powdery mildew) | AA (≥85% control of cucumber powdery mildew) | AA (≥85% control of wheat septoria leaf blotch) | B (from 50 to 69% control of wheat fusarium head blight) | AA (≥85% control of wheat leaf rust) | AA (≥85% control of Asian soybean rust)
COc1ccc(F)cc1[C@H](Cn1c(=O)n(C(C)(C)C(=O)NC(C)C)c(=O)c2c(C)c(-n3cccn3)sc21)OC[C@H](C)C#N [Compound I-263, 2-(1-((R)-2-((R)-2-cyanopropoxy)-2-(5-fluoro-2-methoxyphenyl)ethyl)-5-methyl-2,4-dioxo-6-(1H-pyrazol-1-yl)-1,4-dihydrothieno[2,3-d]pyrimidin-3 (2H)-yl)-N-isopropyl-2-methylpropanamide] | 0.4 (≈ 0.655 µM) | 0.4 (≈ 0.655 µM) | 2 (≈ 3.27 µM) | ≥ 0.08 | 0.4 (≈ 0.655 µM) | ≥ 50 | 0.4 (≈ 0.655 µM) | > 10 | A (from 70% to 84% control of barley powdery mildew) | AA (≥85% control of cucumber powdery mildew) | D (<25% control of wheat septoria leaf blotch) | B (from 50 to 69% control of wheat fusarium head blight) | AA (≥85% control of wheat leaf rust) | AA (≥85% control of Asian soybean rust)
